The record followed here is a melting point compilation (Tetko et al.; mined from patent text by program, amines drawn as free bases though some values may be those of a salt).

Some results are limits rather than exact numbers.

For the compound `CCc1oc2ccccc2c1C(=O)c1ccc(OC(C)C(=O)O)cc1` (stereo not given), the melting point was in the range of 182 to 184 °C.
Then `COc1ccnc(CSc2nc3c(OC(F)F)c(OC)c(OC)cc3[nH]2)c1`, with 112 to 114 °C.
As for `CC1CC(O)CC2=CCC3C4CCC(=O)C4(C)CCC3C21C` (stereo not given), the melting point was 167 to 169 °C.
`CS(=O)(=O)c1ccc2nc(N)[nH]c2c1` registered a melting point of 233 to 238 °C.
Compound `O=C1CCC(c2ccccc2F)c2ccccc2N1` (stereo not given) came in with a melting point of 210 to 212 °C.
Turning to `COC(=O)C(C)CC(=O)C(Cc1ccccc1)NC(=O)c1ccccc1` (stereo not given), the melting point fell in the range of 97 to 98.5 °C.
The compound `CCCCCCCCCCCCCCCCC(NC(C)=O)(C(=O)OCC)C(=O)OCC` had a melting point of 65 to 67 °C.
`COc1cccc(CC(=O)O)c1OCCCc1cn(-c2ccc(NC(=O)C(C)C)cn2)nc1C(C)C` had a melting point of 122 to 123 °C.
Take `O=C(Nc1ccc(OC(F)(F)F)cc1)NC1CCN(C(=O)Cc2ccccn2)CC1`: the melting point fell in the range of 183 to 187 °C.
As for `C[C@]1(COc2ccc(-c3nc(-c4ccc(Cl)cc4)co3)cc2)Cn2cc([N+](=O)[O-])nc2O1`, the melting point was in the range of 249 to 252 °C.
With `CSC(=NC#N)N(C)N` the figure was 69 to 71 °C.
Then `O=C1c2ccccc2C(=O)N1CCCSc1ncco1`, with 101 °C; and `OCCn1cc(-c2cc3nccnc3[nH]2)c2ccccc21`, with 272 to 273 °C.
For `CCOC(=O)C(C(=O)OCC)c1ccc(OCC2=NCCN2)cc1`, the melting point was in the range of 72 to 110 °C.
Consider `CCCC(=O)Nc1cccc(-c2ccc3nnc(C)n3n2)c1`, for which the melting point lay in the range of 195 to 198 °C.
With `CC(C)(C)OC(=O)[C@H]1C[C@@H](C(=O)OCc2ccccc2)[C@@H](c2ccccc2)N1` (racemic) the figure was 70 °C; with `COC(=O)c1ccc(OCC=O)cc1`, 58 to 60 °C; with `Cc1csc2c(=O)n(CCC(C(=O)NO)N(C)S(=O)(=O)c3ccc(Oc4ccccc4)cc3)c(=O)[nH]c12` (stereo not given), 170 to 171 °C.
With `O=C(NC1CCN(CCCC(O)c2ccccc2)CC1)c1ccccc1` (stereo not given), the melting point was 155 to 156 °C.
The compound `CC1=NC(C)(C)N(O)C1(C)C` registered a melting point of 127 to 128 °C.
Consider `COc1nnc(-c2ccc3occ(-c4ccc(OC(F)(F)F)cc4)c3c2)o1`, for which the melting point is 143 to 144 °C.
The compound `COc1ccc2cc(C(=O)NC3N=C(c4ccccc4)c4ccccc4-n4c(C)nnc43)[nH]c2c1` (stereo not given) returned a melting point of 160 to 170 °C.
With `COc1cc2c(cc1OC)CC(=O)N(Cc1cccnc1)C=C2` the figure was 144 to 146 °C; with `CC1(C)c2ccccc2C(C)(C)C1(CC#N)SN=O`, 67 to 69 °C.
Consider `COCCN=Cc1cc(OC)c(OC)cc1[N+](=O)[O-]`, for which the melting point lay within 65 to 66 °C.
On to `O=C(NC/C=C/c1ccccc1)c1ccc(Cl)c(Cl)c1`, for which the melting point came to 105 °C.
As for `CC(C)(C)c1ccc(S(=O)(=O)CS(=O)(=O)c2ccc(C(C)(C)C)cc2)cc1`, the melting point lay within 150 to 152 °C.
`COc1ccc(Nc2cccc3c2C(=O)N(C2CCC(=O)NC2=O)C3=O)c(OC)c1` (stereo not given) had a melting point of 208 to 210 °C.
The compound `CCCCc1nc2c(N)nc3cccnc3c2n1CCNC(=O)c1cccc(O)n1` returned a melting point of 258 to 260 °C.
`COc1ccc(NC(=O)Oc2cccc3ccoc23)cc1` returned a melting point of 157 to 159 °C.
Then `NCCCOc1ccc2cc(CC(=O)O)c(=O)n(Cc3ccccc3)c2c1`, with 126 to 128 °C; and `O=C1CC(c2cccc3c2OCO3)=Nc2ccc(N3CCOCC3)cc21`, with 350 to 352 °C; and `CON=C(c1ccccc1)c1ccc2c(c1)C(C)(C)CCN2CCOc1ccc(CC(OCC(F)(F)F)C(=O)O)cc1` (stereo not given), with 62 to 64 °C.
Then `N#Cc1c(N2CCc3ccccc3CC2)nc2n(c1=O)CCN2`, with greater than 200 °C; and `Nc1cc2c(cn1)CC(c1ccc(Cl)cc1Cl)c1ccccc1-2` (stereo not given), with 189 to 193 °C.
On to `Cc1ccsc1C(=O)c1cccn1N`, for which the melting point is 42 to 44 °C.
Regarding `O=C1N(Cc2ncccc2C(F)(F)F)c2cccnc2C12COc1cc3c(cc12)OCCO3` (stereo not given), the melting point was greater than 250 °C.
With `C=CCN1C(=O)CN(c2ccc(Cc3ccccc3)cc2)C1=S` the figure was 132 °C; with `O=C(O)C1=CSC2C(=Cc3cc4c(s3)CCSC4)C(=O)N12` (stereo not given), greater than 250 °C.
`CNC(=S)c1ccncc1C1c2ccccc2CC1(C)C` (stereo not given) registered a melting point of 187 to 189 °C.
In turn, `COc1ccc(-c2nc(-c3cccs3)c[nH]2)cc1Br` registered a melting point of 84 to 87 °C.
Then `CSc1nc(Cl)c(I)c(C(F)(F)F)n1`, with 55 to 56 °C; and `COc1ccc(-n2nc(Cl)cc2-c2ccc(OCCNC(N)=O)cc2)cc1`, with 140 to 142 °C.
The compound `Cc1cc(C)cc(Oc2c(CCl)c(C)[nH]c(=O)c2I)c1` registered a melting point of 256 to 258 °C.
Consider `c1ccc(Cn2cnc(-c3cnc(-c4ccccc4)nc3)c2)cc1`, for which the melting point is 195 °C.
The compound `CCN(CC)CCNC(=S)NC(=O)c1ccccc1` showed a melting point of 54 to 56 °C.
With `CC(C)(C)S(=O)c1cccc(F)c1C(=O)NCCCl` (stereo not given), the melting point was 80 to 90 °C.
`CCNC(=S)NCCSCc1[nH]cnc1C` came in with a melting point of 140 to 141 °C.
`CCN(CC)c1nc2ccccc2n2cnnc12` had a melting point of 117 to 119 °C.
`Nc1nc(Nc2ccc3c(c2)OCO3)sc1C(=O)c1ccccc1[N+](=O)[O-]`: the melting point was in the range of 200 to 202 °C.
For `COC(=O)C1=Cc2ccccc2N(C)CCC1`, the melting point fell in the range of 80 to 82 °C.
Then `O=C1N(CCCOCc2ccccc2)c2ccccc2C12COc1cc3c(cc12)CCO3` (stereo not given), with 112 to 113 °C; and `COc1ccc(N2CCN(C(=O)CC3C=Cc4ccccc43)CC2)cc1` (stereo not given), with 123 to 125 °C; and `CCNC(=O)COC1CCN(Cc2cnc3cc(NC(=O)c4ccc(-c5ccc(F)cc5)cc4)ccc3c2)CC1`, with 228 to 230 °C.
Then `Cc1ccc(OCC(O)CNC(C)C)nc1` (stereo not given), with 62 to 67 °C; and `O=[N+]([O-])c1ccc(-c2nc[nH]c2-c2ccc([N+](=O)[O-])cc2)cc1`, with 294 °C; and `O=c1c2c(-c3ccc(O)cc3)n[nH]c2c2cccnc2n1-c1ccccc1`, with greater than 300 °C.
Then `CC(C)(CC(=O)O)c1ccccc1SSc1ccccn1`, with 122 to 125 °C.
The compound `CCC(C)(C)c1cc(-c2cccc(C=C3SC(N4CCOCC4)=NC3=O)c2)ccc1O` displayed a melting point of 174 to 176 °C.
`CCCCc1ccc(NCCS(=O)(=O)NCCCOc2cccc(CN3CCCCC3)c2)cc1` showed a melting point of 115 to 119 °C.
In the case of `COc1cccc(-n2nc(Cl)cc2-c2ccc(S(C)(=O)=O)cc2)c1`, the melting point lay within 103 to 104 °C.
With `Cn1c(=O)nc(N)c2ccccc21` the figure was 252 to 262 °C; with `CONC(=O)CC(C#Cc1ccccc1)c1ccc(OC)c(OC2CCCC2)c1` (racemic), 111 to 114 °C.
For the compound `COc1ncc(C(F)(F)F)cc1-c1cccn2nc(Nc3ccc(C4CCN(CC(=O)N(C)C)CC4)cc3)nc12`, the melting point lay within 122 to 124 °C.
As for `Cc1ccccc1C=C1CCc2c1oc1ccc(C(=O)O)cc1c2=O`, the melting point was greater than 300 °C.
Take `Cc1c(CO)c2c(c(C)c1NC(=O)NC(C)(C)C)C(c1ccc(C(C)C)cc1)CO2` (single isomer, unassigned; (+)): the melting point lay within 187 to 188 °C.
`COc1c(N2CCC(O)C2)c(F)cc2c(=O)c(C(=O)O)cn(C3CC3)c12` (stereo not given) had a melting point of 253 to 254 °C.
For `O=C(Nc1ccc2[nH]c(=O)[nH]c2c1)C(=O)N1CCC(Cc2ccccc2)CC1`, the melting point is greater than 260 °C.
Compound `CCC(C)(C)C(=O)Oc1cc2c(s1)CCN([C@H](C(=O)OC)c1ccccc1Cl)C2` registered a melting point of 98 to 100 °C.
Compound `C#CCOC(=O)N1c2ccccc2C(=O)Nc2cccnc21` registered a melting point of 213 °C.
With `O=C1c2cc(N3CCN(Cc4ccccc4)CC3)ccc2OC12CC2` the figure was 125 to 126 °C.
With `O=C(CCl)NC(C(=O)O)N(C(=O)CCl)c1cscn1` (stereo not given) the figure was 184 to 186 °C.
With `COc1cc(Nc2c(C#N)cnc3cc(-c4csc(C5OCCO5)c4)sc23)c(Cl)cc1Cl` the figure was 219 to 221 °C.
`CCCCCCOc1ccc(-n2cc(C(=O)OCC)cn2)cc1C#N` returned a melting point of 93 to 94 °C.
With `CCCn1cc(Cc2ccc(C(=O)OC)cc2OC)c2cc(C=CCC(=O)N(C)C)ccc21`, the melting point fell in the range of 122 to 124 °C.
Compound `Cc1c(Br)cc(Cl)c(NS(=O)(=O)c2n[nH]c(NC=O)n2)c1Cl` returned a melting point greater than 290 °C.
Compound `CC1=NC(=S)N=C1CCCCNC(=O)c1ccccc1` came in with a melting point of 180 to 184 °C.
`CCc1cccc(CC)c1NC(=S)NC(C)(C)CC` gave a melting point of 85 to 87 °C.
`CCOC(=O)c1ccccc1OCCCCCCCCCCC(=O)CCCCOc1ccc(Cl)cc1`: the melting point is 95 to 96 °C.
The compound `COC(=O)c1ccc(O)nc1C1=NC(C)(C(C)C)C(=O)N1` (stereo not given) came in with a melting point of 186 to 191 °C.
As for `Cc1ccc(C=CC(=O)N(C)O)cc1`, the melting point lay within 142 to 144 °C.
For `FC(F)(F)c1ccc(C2=NNCC2c2ccccc2)cc1` (stereo not given), the melting point was in the range of 98 to 112 °C.
Consider `CCOC(=O)C(C(=O)OCC)c1cccc(C(=O)c2ccc(Cl)cc2)c1[N+](=O)[O-]`, for which the melting point lay within 96 to 100 °C.
Regarding `COc1ccc2c(c1)C(=O)c1c-2c(NCCCN(C)C)nc2ccccc12`, the melting point was in the range of 113 to 114 °C.
As to `COC(=O)c1cccc2c1CC(C)(C)CC2N(C)S(C)(=O)=O` (stereo not given), the melting point fell in the range of 98 to 99 °C.
With `Cc1oc(-c2ccccc2)nc1COc1cccc(C#CC(C)n2oc(=O)[nH]c2=O)c1` (stereo not given), the melting point was in the range of 55 to 57 °C.
In the case of `CCOC(=O)c1c(-c2cnccn2)ssc1=S`, the melting point turned out to be 125 °C.
Consider `Cc1ccc(NC(=O)NCc2cccc3c2CN(C2CCC(=O)NC2=O)C3=O)cc1C` (stereo not given), for which the melting point is greater than 260 °C.
With `CC1=CC(C)(C)Nc2cc3oc(=O)cc(C)c3cc21`, the melting point was in the range of 270 to 274 °C.
With `CCOc1c(OC)cc(C(=O)O)c(-c2c(C(=O)O)cc(OC)c3c2OCO3)c1OCC`, the melting point was 262 to 263 °C.

The term melting point denotes the temperature of the solid-liquid transition.
